In brackets after ≈: the same amount, converted by molar mass. Where two headings read alike, the source gives them in different places.
Columns and labels:
Format in all cases: cell-based
[1] = tested on: P. falciparum 3D7 (sensitive strain); test: Antiplasmodial in vitro drug sensitivity assay (HRP2-ELISA); conditions: P. falciparum 3D7 (sensitive strain), read-out: IC50 against P. falciparum 3D7
Description: (§1) Two laboratory strains of P. falciparum, the chloroquine sensitive 3D7 and the multi-resistant Dd2 were kept in continuous culture as previously described (Trager and Jensen 1976). In brief, parasites were kept in complete culture medium (RPMI 1640, 25 mM HEPES, 2 mM L-glutamine, 50 μg/ml gentamicin and 0.5% w/v AlbuMAX) at 37° C., 5% CO2 and 5% oxygen at 5% hematocrit with daily change of medium. Synchronization was performed with sorbitol twice a week (Lambros and Vanderberg 1979).
(§2) In Vitro Drug Sensitivity Assay
(§3) All compounds were dissolved in DMSO at stock dilutions between 25 and 100 mM; the reference drug chloroquine diphosphate (MW: 515.86) was diluted in distilled water and DMSO, respectively. […] Antiplasmodial activity of the different compounds was tested in a drug sensitivity assay against the two laboratory strains using the histidine-rich protein 2 (HRP2) assay as described previously (Noedl 2005). In brief: 96 well plates were pre-coated with the different compounds in a threefold dilution before ring stage parasites were added in complete culture medium at a hematocrit of 1.5% and a parasitemia of 0.05% in a total volume of 225 μl per well. After three days of incubation plates were frozen until analyzed by HRP2-ELISA. All compounds were evaluated in duplicate in at least two independent experiments.

[2] = tested on: P. falciparum Dd2 (resistant strain); test: as above; conditions: P. falciparum Dd2 (resistant strain), read-out: IC50 against P. falciparum Dd2
Description: as §1, §2, §3

[3] = tested on: E. coli TolC (+PMBN); test: Antimicrobial assay, MIC by microbroth dilution with PMBN; conditions: 16 h, 3 μg/mL polymyxin B nonapeptide (PMBN) added
Description: (§4) Bacterial strains used in susceptibility assays (minimum inhibitory concentrations, MIC) were either part of our internal strain collection or were purchased form the German Collection of Microorganisms and Cell Cultures (DSMZ). All compounds were prepared as DMSO stocks and MIC values were determined in standard microbroth dilution assays. Overnight cultures of bacteria were diluted in cation-adjusted Muller-Hinton broth (BBL™, BD) and were adjusted to approximately 10^5 cfu/mL. For the E. coli culture, 3 μg/mL of polymyxin B nonapeptide (PMBN) was added to increase permeability of the outer membrane as chlorotonils were previously shown to not penetrate into Gram-negative cells. Bacteria were grown in the presence of the derivatives in serial dilution for 16 h at their optimal growth temperature. MIC values were determined according to CLSI guidelines (antibiotic concentration at which no visible bacterial growth is observed).

[4] = tested on: S. aureus Newman; test: Antimicrobial assay, MIC by microbroth dilution; conditions: 16 h, cation-adjusted Muller-Hinton broth; for MIC: Staphylococcus aureus, NEWMAN
Description: as §4, with “For the E. coli culture, 3 μg/mL of polymyxin B nonapeptide (PMBN) was added to increase permeability of the outer membrane as chlorotonils were previously shown to not penetrate into Gram-negative cells.” left out

[5] = tested on: B. subtilis DSM-10; test: Antimicrobial assay, MIC by microbroth dilution; conditions: 16 h, cation-adjusted Muller-Hinton broth; for MIC: Bacillus subtilis, DSM10
Description: as §4, with “For the E. coli culture, 3 μg/mL of polymyxin B nonapeptide (PMBN) was added to increase permeability of the outer membrane as chlorotonils were previously shown to not penetrate into Gram-negative cells.” left out

[6] = tested on: C. glutamicum DSM-20300; test: Antimicrobial assay, MIC by microbroth dilution; conditions: 16 h, cation-adjusted Muller-Hinton broth; for MIC: Corynebacterium glutamicum, DSM20300
Description: as §4, with “For the E. coli culture, 3 μg/mL of polymyxin B nonapeptide (PMBN) was added to increase permeability of the outer membrane as chlorotonils were previously shown to not penetrate into Gram-negative cells.” left out

[7] = tested on: L-929 (murine fibroblasts); test: Cytotoxicity assay (MTT, 5 d); conditions: Mus musculus, L929, 120 h
Description: Cytotoxicity Assay The murine fibroblast cell line L-929 was obtained from the German Collection of Microorganisms and Cell Cultures (DSMZ) and maintained under conditions recommended by the depositor. Cells were seeded at 6×10^3 cells per well of sterile 96-well plates in 180 μL complete medium and treated with the compounds in serial dilution after 2 h of equilibration. After 5 d, viability was assessed by the MTT method. After 1.5 h incubation with 0.5 mg/mL MTT reagent, cells were washed with PBS and 100 μL of 2-propanol/10 N HCl (250:1) was added. The absorbance at 570 nm was determined on a microplate reader and cell viability was expressed as percentage relative to the respective solvent control. Half-inhibitory concentrations (IC50) were determined by sigmoidal curve fitting.

[8] = tested on: Gram-positive bacteria; test: Antimicrobial assay, MIC against a range of Gram-positive bacteria (Table 5)
Description: as §4, with “For the E. coli culture, 3 μg/mL of polymyxin B nonapeptide (PMBN) was added to increase permeability of the outer membrane as chlorotonils were previously shown to not penetrate into Gram-negative cells.” left out

Row | SMILES | IC50 ([1]; Plasmodium falciparum) | IC50 ([2]; Plasmodium falciparum) | MIC E. coli TolC (+PMBN) [3] | MIC [4] | MIC [5] | MIC [6] | other results
1 | C[C@@H]1C(=O)O[C@@H](C)/C=C/C=C\[C@@H](C)[C@@H]2C=C[C@@H]3C[C@@](C)(Cl)[C@H](O)[C@@H](C)[C@H]3[C@@H]2C(=O)C(Cl)(Cl)C1=O [ChA-Epo1-Cl] | > 2.1 µM | > 2.1 µM | 3.2 µg/mL | 3.2 µg/mL (≈ 6.02 µM) | 3.2 µg/mL (≈ 6.02 µM) | > 3.2 µg/mL | 
2 | CCO[C@]1(C)C[C@H]2C=C[C@@H]3[C@@H](C(=O)C(Cl)(Cl)C(=O)[C@H](C)C(=O)O[C@@H](C)/C=C/C=C\[C@H]3C)[C@@H]2[C@H](C)[C@H]1O [ChA-Epo1-OEt] |  |  | 1.6 µg/mL | > 1.6 µg/mL | > 6.4 µg/mL | > 6.4 µg/mL | 
3 | CO[C@]1(C)C[C@H]2C=C[C@@H]3[C@@H](C(=O)C(Cl)(Cl)C(=O)[C@H](C)C(=O)O[C@@H](C)/C=C/C=C\[C@H]3C)[C@@H]2[C@H](C)[C@H]1O [ChA-Epo1-OMe] |  |  | 0.8 to 1.6 µg/mL | 1.6 µg/mL (≈ 3.03 µM) | 6.4 µg/mL (≈ 12.1 µM) | > 6.4 µg/mL | 
4 | C[C@@H]1C(=O)O[C@@H](C)/C=C/C=C\[C@@H](C)[C@@H]2C=C[C@@H]3C[C@@](C)(O)[C@H](F)[C@@H](C)[C@H]3[C@@H]2C(=O)C(Cl)(Cl)C1=O [ChA-Epo2-F] | 0.136 µM | 0.329 µM | 0.8 µg/mL | 0.2 µg/mL (≈ 0.388 µM) | 0.2 µg/mL (≈ 0.388 µM) | 0.4 to 0.8 µg/mL (≈ 0.776 to 1.55 µM) | 
5 | C[C@@H]1C(=O)O[C@@H](C)/C=C/C=C\[C@@H](C)[C@@H]2C=C[C@@H]3C[C@@](C)(O)[C@H](OCc4ccccc4)[C@@H](C)[C@H]3[C@@H]2C(=O)C(Cl)(Cl)C1=O [ChA-Epo2-OBn] |  |  | >3.2 µg/mL | 0.4 µg/mL (≈ 0.663 µM) | 0.4 µg/mL (≈ 0.663 µM) | 3.2 µg/mL (≈ 5.3 µM) | 
6 | C[C@@H]1C(=O)O[C@@H](C)/C=C/C=C\[C@@H](C)[C@@H]2C=C[C@@H]3C[C@@](C)(O)[C@H](OCCCCO)[C@@H](C)[C@H]3[C@@H]2C(=O)C(Cl)(Cl)C1=O [ChA-Epo2-OBuOH] |  |  | 1.6 µg/mL | > 3.2 µg/mL | > 3.2 µg/mL | 3.2 µg/mL (≈ 5.46 µM) | 
7 | CCO[C@@H]1[C@@H](C)[C@H]2[C@@H]3C(=O)C(Cl)(Cl)C(=O)[C@H](C)C(=O)O[C@@H](C)/C=C/C=C\[C@@H](C)[C@@H]3C=C[C@@H]2C[C@@]1(C)O [ChA-Epo2-OEt] |  |  | >3.2 µg/mL |  | > 3.2 µg/mL | > 3.2 µg/mL | IC50 ([1]; Plasmodium falciparum, μM): > 11 µM; IC50 ([2]; Plasmodium falciparum, μM): > 11 µM; IC50 [7]: > 100000 nM
8 | C[C@@H]1C(=O)O[C@@H](C)/C=C/C=C\[C@@H](C)[C@@H]2C=C[C@@H]3C[C@@](C)(O)[C@H](O)[C@@H](C)[C@H]3[C@@H]2C(=O)C(Cl)(Cl)C1=O [ChA-Epo2-OH] | > 2.17 µM | > 2.17 µM | >6.4 µg/mL |  | > 6.4 µg/mL | > 6.4 µg/mL | 
9 | CO[C@@H]1[C@@H](C)[C@H]2[C@@H]3C(=O)C(Cl)(Cl)C(=O)[C@H](C)C(=O)O[C@@H](C)/C=C/C=C\[C@@H](C)[C@@H]3C=C[C@@H]2C[C@@]1(C)O [ChA-Epo2-OMe] |  |  | 3.2 µg/mL |  | > 3.2 µg/mL | > 3.2 µg/mL | IC50 ([1]; Plasmodium falciparum, μM): > 11 µM; IC50 ([2]; Plasmodium falciparum, μM): > 11 µM; IC50 [7]: > 100000 nM
10 | C[C@@H]1C(=O)O[C@@H](C)/C=C/C=C\[C@@H](C)[C@@H]2C=C[C@@H]3C[C@@](C)(O)[C@H](OCC(O)CO)[C@@H](C)[C@H]3[C@@H]2C(=O)C(Cl)(Cl)C1=O (stereo partly shown) [ChA-Epo2-glycerol] | > 1.9 µM | > 1.9 µM | >3.2 µg/mL | 4 µg/mL (≈ 6.81 µM) | > 3.2 µg/mL | > 3.2 µg/mL | 
11 | C[C@H]1[C@H]2[C@@H]3C(=O)/C(Cl)=C(\O)[C@H](C)C(=O)O[C@@H](C)/C=C/C=C\[C@@H](C)[C@@H]3C=C[C@@H]2C[C@@]2(C)O[C@@H]12 [ChB1-Epo] |  |  |  |  |  |  | MIC ([8]; Enterococcus faecalis, E. faecalis 20478, read-out: MIC): 0.8 µg/mL (≈ 1.74 µM); MIC ([8]; Enterococcus faecalis, E. faecalis 29212, read-out: MIC): 0.8 µg/mL (≈ 1.74 µM); MIC ([8]; Enterococcus faecium, E. faecium 20477, read-out: MIC): 0.2 µg/mL (≈ 0.434 µM); MIC ([8]; Enterococcus faecium, VRE, E. faecium 17050 (VRE), read-out: MIC): 32 µg/mL (≈ 69.4 µM); MIC ([8]; Micrococcus luteus, M. luteus, read-out: MIC): 0.0125 µg/mL (≈ 0.0271 µM); MIC ([8]; Mycolicibacterium smegmatis, M. smegmatis, read-out: MIC): 16 µg/mL (≈ 34.7 µM); MIC ([8]; Priestia megaterium, B. megaterium, read-out: MIC): 0.0125 µg/mL (≈ 0.0271 µM); MIC ([8]; Staphylococcus epidermidis, S. epidermidis 28765, read-out: MIC): 0.05 µg/mL (≈ 0.108 µM); MIC ([8]; Streptococcus pneumoniae, S. pneumoniae 20566, read-out: MIC): 0.4 µg/mL (≈ 0.868 µM)
12 | CC1=C[C@@H](C)[C@H]2[C@@H]3C(O)=C(Cl)C(=O)[C@H](C)C(=O)O[C@@H](C)/C=C/C=C\[C@@H](C)[C@@H]3C=C[C@@H]2C1 [Chlorotonil B (ChB), Chlorotonil B, reference compound] |  |  | >3.2 µg/mL |  |  |  | IC50 [1]: 0.0966 µM; IC50 [2]: 0.0636 µM; MIC ([8]; B. megaterium): 0.1 µg/mL (≈ 0.225 µM); MIC ([8]; E. faecalis 20478): >3.2 µg/mL; MIC ([8]; E. faecalis 29212): >3.2 µg/mL; MIC ([8]; E. faecium 17050 (VRE)): >3.2 µg/mL; MIC ([8]; E. faecium 20477): >3.2 µg/mL; MIC ([8]; M. luteus): 0.4 µg/mL (≈ 0.899 µM); MIC ([8]; M. smegmatis): 0.0125 µg/mL (≈ 0.0281 µM); MIC ([8]; S. epidermidis 28765): >3.2 µg/mL; MIC ([8]; S. pneumoniae 11865 (PRSP)): >16 µg/mL; MIC ([8]; S. pneumoniae 20566): 1.6 µg/mL (≈ 3.6 µM); MIC S. aureus Newman [4]: 0.2 µg/mL (≈ 0.449 µM); MIC B. subtilis DSM-10 [5]: 0.2 µg/mL (≈ 0.449 µM); MIC C. glutamicum DSM-20300 [6]: 0.1 µg/mL (≈ 0.225 µM)

Reference: US11365201B2, “Chlorotonil derivatives” (HELMHOLTZ-ZENTRUM FÜR INFEKTIONSFORSCHUNG GMBH, priority 2017, dated 2022)
